Measurements as given in US8895568B2, “Compositions comprising substituted pteridines as agrochemicals” (Dow AgroSciences LLC, priority 2009, dated 2014).
Where two headings read alike, the source gives them in different places.

Key:
Type in all cases: in vivo
Colletotricum lagenarium = assay: Cucumber Anthracnose (COLLLA), foliar spray, percent disease control
[1] = system: Pseudoperonospora cubensis; assay: Cucumber Downy Mildew (PSPECU), foliar spray, percent disease control; conditions: read-out: PSPECU percent control
Cochliobolus sativus = assay: Spot Blotch of Wheat (COCHSA), foliar spray, percent disease control; conditions: Bipolaris sorokiniana, read-out: COCHSA percent control
[2] = system: DROSME, AEDSAE, LAPHEG, or HELIVI; assay: Insecticidal activity, active if any of DROSME, AEDSAE, LAPHEG or HELIVI was controlled at 80% or more; conditions: read-out: >80% mortality on any insect species @ 4000 ppm

SMILES	pest or weed control at 200 µg/mL (Colletotricum lagenarium; foliar) [%]	pest or weed control at 200 µg/mL ([1]; foliar) [%]	pest or weed control at 200 µg/mL (Cochliobolus sativus; foliar) [%]	pest or weed control at 4000 ppm [2] [%]	pest or weed control at 200 µg/mL (Colletotricum lagenarium; foliar spray) [%]	pest or weed control at 200 µg/mL ([1]; foliar spray) [%]	pest or weed control at 200 µg/mL (Cochliobolus sativus; foliar spray) [%]
Cc1cc(CCNc2ncnc3nccnc23)ccc1Oc1cc(C(F)(F)F)ccn1 [Compound 109]	50 to 79	80 to 100	0 to 49	> 80			
CCOc1cccc(Oc2ccc(CCNc3ncnc4nccnc34)cc2)n1 [Compound 12, {2-[4-(6-Ethoxypyridin-2-yloxy)-phenyl]-ethyl}-pteridin-4-yl-amine]	0 to 49	80 to 100	0 to 49	> 80			
FC(F)c1ccnc(Oc2ccc(CCNc3ncnc4nccnc34)cc2)c1 [Compound 101]	80 to 100	80 to 100	0 to 49	> 80			
CC(C)c1ccnc(Oc2ccc(CCNc3ncnc4nccnc34)cc2)c1 [Compound 203]				> 80	50 to 79	80 to 100	0 to 49
CC(C)c1ccc(Oc2ccc(CCNc3ncnc4nccnc34)cc2)cc1 [Compound 132, {2-[4-(4-Isopropylphenoxy)-phenyl]-ethyl}-pteridin-4-yl-amine]	0 to 49	80 to 100	0 to 49	> 80			
COc1ccc(CCNc2ncnc3nc(C)c(C)nc23)cc1 [Compound 131]	0 to 49	80 to 100	0 to 49	> 80			
c1ccc(-c2nnsc2Oc2ccc(CCNc3ncnc4nccnc34)cc2)cc1 [Compound 58]	0 to 49	50 to 79	0 to 49	> 80			
Cc1cnc2ncnc(NCCc3ccc(Oc4ccc(C(F)(F)F)cn4)cc3)c2n1 [Compound 41]	50 to 79	80 to 100	0 to 49	> 80			
CCOc1cc(CCNc2ncnc3nccnc23)ccc1Oc1ccc(C(F)(F)F)cn1 [Compound 157]	0 to 49	80 to 100	0 to 49	> 80			
c1cnc(Oc2ccc(CCNc3ncnc4nccnc34)cc2)nc1 [Compound 15]	0 to 49	80 to 100	0 to 49	> 80			
Brc1ccc(Oc2ccc(CCNc3ncnc4nccnc34)cc2)cn1 [Compound 110]	0 to 49	80 to 100	0 to 49	> 80			
CC(Sc1ncnc2nccnc12)c1cccc(C(F)(F)F)c1 (stereo not shown) [Compound 79]	0 to 49	0 to 49	0 to 49	> 80			
Cc1ccc(Oc2ccc(CCNc3ncnc4nccnc34)cc2)nc1 [Compound 40]	50 to 79	80 to 100	0 to 49	> 80			
CC(C)(C)OC(=O)c1ccc(Oc2ccc(CCNc3ncnc4nccnc34)cc2)nc1 [Compound 165]	0 to 49	80 to 100	0 to 49	> 80			
Cc1nc2ncnc(NCCc3ccc(Oc4cc(C(F)(F)F)ccn4)cc3)c2nc1C [Compound 162]	0 to 49	80 to 100	0 to 49	> 80			
Cc1cnc2ncnc(NCCc3ccc(Oc4ncc(C(F)(F)F)cc4F)cc3)c2n1 [Compound 53]	80 to 100	80 to 100	0 to 49	> 80			
